Read-outs that look alike come from different tables or passages of the source.
Molecular target: T1, thymidine phosphorylase/PD-ECGF (E. coli) (Escherichia coli, UniProt P07650)
T1 construct: purchased
Assay: Thymidine phosphorylase inhibition assay (absorbance at 290 nm)
Type: biochemical
Details: for IC50: Table 1, triplicate; for thymidine phosphorylase inhibition, result in words: compared with standard 7-Deazaxanthine
Experimental: Since human TP is not easy to obtain, we used commercially available recombinant E. coli TP. The primary sequence of TP is frequently preserved throughout evolution as mammalian TP is reported to share 39% sequence resemblance with the TP of E. coli. The mammalian enzyme also shared up to 70% resemblance with the active site residues, and three-dimensional structure of E. coli TP enzyme. The thymidine phosphorylase/PD-ECGF (E. coli) activity was determined by measuring the absorbance at 290 nm spectrophotometrically. The method was described in [50, 51]. In brief, the total reaction mixture of 200 µL contained 145 µL of potassium phosphate buffer (pH 7.4), 30 µL of enzyme (human and E. coli) at concentration 0.05 and 0.002 U, respectively, were incubated with 5 µL of test materials for 10 min at 25 °C in a microplate reader. After incubation, a pre-read at 290 nm was taken to deduce the absorbance of substrate particles. The substrate (20 µL, 1.5 mM), dissolved in potassium phosphate buffer, was immediately added to the plate and continuously read after 10, 20, and 30 min in a microplate reader (SpectraMax, Molecular Devices, CA, USA). All assays were performed in triplicate.
Reactions for above mentioned biological activities were carried out in triplicate. Results were then processed using SoftMax Pro 4.8 software (Molecular Devices, San Jose, CA, USA) and then by Microsoft Excel. The percent inhibition for above mentioned biological activities was calculated by following formula:Percent Inhibition = 100 − (ODtest compound/ODcontrol) × 100(1)

T1 sequence (P07650 whole entry): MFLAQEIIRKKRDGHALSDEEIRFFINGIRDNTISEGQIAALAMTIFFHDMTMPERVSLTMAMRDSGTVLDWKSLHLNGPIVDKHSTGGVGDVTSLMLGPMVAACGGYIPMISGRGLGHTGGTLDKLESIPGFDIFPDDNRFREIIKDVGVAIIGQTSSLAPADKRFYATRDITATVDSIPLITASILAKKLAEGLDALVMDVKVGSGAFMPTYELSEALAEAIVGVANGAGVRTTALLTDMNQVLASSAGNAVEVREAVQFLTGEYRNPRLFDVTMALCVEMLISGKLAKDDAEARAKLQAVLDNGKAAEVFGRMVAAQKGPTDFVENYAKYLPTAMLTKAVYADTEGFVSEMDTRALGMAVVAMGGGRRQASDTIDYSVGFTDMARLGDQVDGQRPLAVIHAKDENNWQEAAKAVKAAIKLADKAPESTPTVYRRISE

Row | Compound | IC50 (read-out: IC50 (µM ± SEM)) | thymidine phosphorylase inhibition, result in words | IC50 (read-out: IC50 (mM ± SEM))
1 | Fc1ccccc1-c1csc2nnc(-c3cnc4ccccc4n3)n12 [Compound 1, 5-(2-flourophenyl)-3(Quinoxalin-2yl)thiazolo[2,3-c][1,2,4]triazole] | 13.6 ± 0.4 µM | outstanding inhibition | –
2 | Fc1cccc(-c2csc3nnc(-c4cnc5ccccc5n4)n23)c1 [Compound 2, 5-(3-flourophenyl)-3(Quinoxalin-2yl)thiazolo[2,3-c][1,2,4]triazole] | 26.1 ± 0.7 µM | outstanding inhibition | –
3 | Fc1ccc(-c2csc3nnc(-c4cnc5ccccc5n4)n23)cc1 [Compound 3, 5-(4-flourophenyl)-3(Quinoxalin-2yl)thiazolo[2,3-c][1,2,4]triazole] | 18.1 ± 0.5 µM | outstanding inhibition | –
4 | Clc1ccccc1-c1csc2nnc(-c3cnc4ccccc4n3)n12 [Compound 4, 5-(2-chlorophenyl)-3(Quinoxalin-2yl)thiazolo[2,3-c][1,2,4]triazole] | 27.4 ± 0.6 µM | outstanding inhibition | –
5 | Clc1cccc(-c2csc3nnc(-c4cnc5ccccc5n4)n23)c1 [Compound 5, 5-(3-chlorophenyl)-3(Quinoxalin-2yl)thiazolo[2,3-c][1,2,4]triazole] | 33.4 ± 0.8 µM | outstanding inhibition | –
6 | Clc1ccc(-c2csc3nnc(-c4cnc5ccccc5n4)n23)cc1 [Compound 6, 5-(4-chlorophenyl)-3(Quinoxalin-2yl)thiazolo[2,3-c][1,2,4]triazole] | 24.4 ± 0.6 µM | outstanding inhibition | –
7 | O=[N+]([O-])c1ccccc1-c1csc2nnc(-c3cnc4ccccc4n3)n12 [Compound 7, 5-(2-nitrophenyl)-3(Quinoxalin-2yl)thiazolo[2,3-c][1,2,4]triazole] | 34.7 ± 0.8 µM | outstanding inhibition | –
8 | O=[N+]([O-])c1ccc(-c2csc3nnc(-c4cnc5ccccc5n4)n23)cc1 [Compound 8, 5-(4-nitrophenyl)-3(Quinoxalin-2yl)thiazolo[2,3-c][1,2,4]triazole] | 47.5 ± 0.9 µM | moderate inhibition | –
9 | Cc1ccccc1-c1csc2nnc(-c3cnc4ccccc4n3)n12 [Compound 9, 3-(quinoxalin-2-yl)-5-o-tolylthiazolo[2,3-c][1,2,4]triazole] | 56.4 ± 1.2 µM | moderate inhibition | –
10 | Cc1cccc(-c2csc3nnc(-c4cnc5ccccc5n4)n23)c1 [Compound 10, 3-(quinoxalin-2-yl)-5-m-tolylthiazolo[2,3-c][1,2,4]triazole] | – | inactive | –
11 | Cc1ccc(-c2csc3nnc(-c4cnc5ccccc5n4)n23)cc1 [Compound 11, 3-(quinoxalin-2-yl)-5-p-tolylthiazolo[2,3-c][1,2,4]triazole] | – | inactive | –
12 | Oc1cccc(-c2csc3nnc(-c4cnc5ccccc5n4)n23)c1 [Compound 12, 3-(3-(quinoxalin-2-yl)thiazolo[2,3-c][1,2,4]triazol-5-yl)phenol] | 33.2 ± 0.75 µM | outstanding inhibition | –
13 | Oc1ccc(-c2csc3nnc(-c4cnc5ccccc5n4)n23)cc1 [Compound 13, 4-(3-(quinoxalin-2-yl)thiazolo[2,3-c][1,2,4]triazol-5-yl)phenol] | 18.3 ± 0.55 µM | outstanding inhibition | –
14 | Oc1ccc(-c2csc3nnc(-c4cnc5ccccc5n4)n23)c(O)c1 [Compound 14, 4-(3-(quinoxalin-2-yl)thiazolo[2,3-c][1,2,4]triazol-5-yl)benzene-1,3-diol] | – | outstanding inhibition | 13.2 ± 0.4 µM
15 | Oc1ccc(O)c(-c2csc3nnc(-c4cnc5ccccc5n4)n23)c1 [Compound 15, 2-(3-(quinoxalin-2-yl)thiazolo[2,3-c][1,2,4]triazol-5-yl)benzene-1,4-diol] | – | outstanding inhibition | 15.2 ± 0.5 µM
16 | Oc1ccc(-c2csc3nnc(-c4cnc5ccccc5n4)n23)cc1O [Compound 16, 4-(3-(quinoxalin-2-yl)thiazolo[2,3-c][1,2,4]triazol-5-yl)benzene-1,2-diol] | – | outstanding inhibition | 3.5 ± 0.2 µM
17 | COc1ccc(-c2csc3nnc(-c4cnc5ccccc5n4)n23)c(O)c1 [Compound 17, 5-methoxy-2-(3-(quinoxalin-2-yl)thiazolo[2,3-c][1,2,4]triazol-5-yl)phenol] | – | outstanding inhibition | 24.2 ± 0.7 µM
18 | COc1ccc(-c2csc3nnc(-c4cnc5ccccc5n4)n23)cc1O [Compound 18, 2-methoxy-5-(3-(quinoxalin-2-yl)thiazolo[2,3-c][1,2,4]triazol-5-yl)phenol] | – | outstanding inhibition | 16.9 ± 0.6 µM
19 | COc1cccc(-c2csc3nnc(-c4cnc5ccccc5n4)n23)c1 [Compound 19, 5-(3-methoxyphenyl)-3-(quinoxalin-2-yl)thiazolo[2,3-c][1,2,4]triazole] | – | inactive | –
20 | COc1ccc(-c2csc3nnc(-c4cnc5ccccc5n4)n23)cc1 [Compound 20, 5-(4-methoxyphenyl)-3-(quinoxalin-2-yl)thiazolo[2,3-c][1,2,4]triazole] | – | inactive | –
21 | COc1ccc(O)c(-c2csc3nnc(-c4cnc5ccccc5n4)n23)c1 [Compound 21, 4-methoxy-2-(3-(quinoxalin-2-yl)thiazolo[2,3-c][1,2,4]triazol-5-yl)phenol] | – | outstanding inhibition | 26.2 ± 0.5 µM
22 | c1cncc(-c2csc3nnc(-c4cnc5ccccc5n4)n23)c1 [Compound 22, 5-(pyridin-3-yl)-3-(quinoxalin-2-yl)thiazolo[2,3-c][1,2,4]triazole] | – | inactive | –
23 | c1ccc2nc(-c3nnc4scc(-c5ccncc5)n34)cnc2c1 [Compound 23, 5-(pyridin-4-yl)-3-(quinoxalin-2-yl)thiazolo[2,3-c][1,2,4]triazole] | – | inactive | –
24 | Oc1ccccc1-c1csc2nnc(-c3cnc4ccccc4n3)n12 [Compound 24, 2-(3-(quinoxalin-2-yl)thiazolo[2,3-c][1,2,4]triazol-5-yl)phenol] | – | outstanding inhibition | 13.1 ± 0.3 µM
25 | Oc1cccc(-c2csc3nnc(-c4cnc5ccccc5n4)n23)c1O [Compound 25, 3-(3-(quinoxalin-2-yl)thiazolo[2,3-c][1,2,4]triazol-5-yl)benzene-1,2-diol] | – | – | 3.2 ± 0.1 µM
